Measured values as given in patent publication US20100273770A1, “1, 2, 4 -OXADIAZOLE COMPOUNDS FOR THE TREATMENT OF AUTOIMMUNE DISEASES” (priority 2007, published 2010).
Structures can show the parent of a compound that is named as a salt.

How the values were obtained:
[1] = target: T1, human S1P3 receptor (Homo sapiens, UniProt Q99500); assay: S1P3 GTPγS assay; type: biochemical; conditions: [35S]-GTPγS binding, S1P3 RBL-2H3 membranes, agonist; read-out: pEC50 (S1P3 GTPγS assay) (converted)
T1 construct: expressed in transfected cells; membranes
T1 sequence (Q99500 whole entry): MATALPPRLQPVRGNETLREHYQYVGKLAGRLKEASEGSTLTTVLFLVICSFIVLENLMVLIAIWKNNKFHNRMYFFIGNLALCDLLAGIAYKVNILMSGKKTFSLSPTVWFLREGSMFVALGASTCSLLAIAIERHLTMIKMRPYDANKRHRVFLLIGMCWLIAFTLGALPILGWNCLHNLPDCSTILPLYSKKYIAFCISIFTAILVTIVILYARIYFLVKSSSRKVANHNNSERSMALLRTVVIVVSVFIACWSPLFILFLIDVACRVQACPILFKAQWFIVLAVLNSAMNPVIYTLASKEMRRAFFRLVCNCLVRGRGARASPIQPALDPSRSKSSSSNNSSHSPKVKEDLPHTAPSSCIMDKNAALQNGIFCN
Experimental: (§1) For membrane preparations all steps were performed at 4° C. Rat hepatoma cells stably expressing the human S1P1 receptor or Rat Basophilic Leukaemia cells (RBL) stably expressing human S1P3 receptor were grown to 80% confluency before being harvested into 10 ml Phospho-Buffered Saline (PBS) and centrifuged at 1200 rpm for 5 minutes. After removal of the supernatant, the pellet was re-suspended and cells were homogenised within a glass Waring blender for 2 bursts of 15 secs in 200 mls of buffer (50 mM HEPES, 1 mM leupeptin, 25 μg/ml bacitracin, 1 mM EDTA, 1 mM PMSF, 2 μM pepstatin A). The blender was plunged into ice for 5 mins after the first burst and 10-40 mins after the final burst to allow foam to dissipate. The material was then spun at 500 g for 20 mins and the supernatant spun for 36 mins at 48,000 g. The pellet was resuspended in the same buffer as above but without PMSF and pepstatin A. The material was then forced through a 0.6 mm needle, made up to the required volume, (usually ×4 the volume of the original cell pellet), aliquoted and stored frozen at −80° C.
S1P3 membranes from rat basophilic leukaemia cells (RBL-2H3)(1.5 μg/well) were adhered to WGA-coated SPA beads (0.125 mg/well) in assay buffer (HEPES 20 mM, MgCl2 3 mM, NaCl 100 mM and pH adjusted to 7.4 using KOH 5M), GDP 10 μM FAC and saponin 90 μg/ml FAC was also added).
(§2) After 30 minutes pre-coupling on ice the bead and membrane suspension was dispensed into a white Greiner polypropylene LV384-well plate (5 μl/well), containing 0.1 μl of the compound. 5 μl/well [^35S]-GTPγS (0.5 nM final radioligand conc) made up in assay buffer was then added to agonist plates. The final assay cocktail (10.1 μl) was centrifuged at 1000 rpm for 5 minutes then read immediately on a Viewlux reader.
(§3) All test compounds were dissolved in DMSO at a concentration of 10 mM and were prepared in 100% DMSO using a 1 in 4 dilution step to provide 11 point dose response curves. The dilutions were transferred to the assay plates ensuring that the DMSO concentration was constant across the plate for all assays.
(§4) All data was normalized to the mean of 16 high and 16 low control wells on each plate. A four parameter curve fit was then applied.
(§5) S1P3 expressing RBL membranes (1.5 μg/well) were homogenised by passing through a 23G needle. These were then adhered to WGA-coated SPA beads (0.125 mg/well) in assay buffer (HEPES 20 mM, MgCl2 10 mM, NaCl 100 mM and pH adjusted to 7.4 using KOH 5M). GDP 10 μM FAC and saponin 90 μg/ml FAC were also added
(§6) After 30 minutes precoupling on ice, the bead and membrane suspension was dispensed into white Greiner polypropylene LV 384-well plates (5 μl/well), containing 0.1 μl of compound. 5 μl/well [^35S]-GTPγS (0.5 nM for S1P1 or 0.3 nM for S1P3 final radioligand concentration) made in assay buffer was then added to the plates. The final assay cocktail (10.1 μl) was then sealed, spun on a centrifuge, then read immediately on a Viewlux instrument.

[2] = target: T2, human S1P1 receptor (Homo sapiens, UniProt P21453); assay: S1P1 GTPγS assay; type: biochemical; conditions: [35S]-GTPγS binding, human S1P1 rat hepatoma (RH7777) membranes, agonist; read-out: pEC50 (S1P1 GTPγS assay) (converted)
T2 construct: expressed in transfected cells; membranes
T2 sequence (P21453 whole entry): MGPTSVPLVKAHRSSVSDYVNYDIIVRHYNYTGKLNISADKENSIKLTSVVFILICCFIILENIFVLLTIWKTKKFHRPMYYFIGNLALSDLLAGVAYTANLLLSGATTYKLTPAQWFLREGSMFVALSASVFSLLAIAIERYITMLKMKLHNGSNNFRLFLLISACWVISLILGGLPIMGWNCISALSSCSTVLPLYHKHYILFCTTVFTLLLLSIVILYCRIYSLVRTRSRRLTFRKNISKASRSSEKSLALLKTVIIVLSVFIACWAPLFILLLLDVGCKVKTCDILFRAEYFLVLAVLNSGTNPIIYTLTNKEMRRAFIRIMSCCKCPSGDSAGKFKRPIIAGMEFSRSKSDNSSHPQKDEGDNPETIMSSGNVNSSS
Experimental: as §1
as §1, with “All” for “For membrane preparations all”, “Cells” for “Rat hepatoma cells stably expressing the human S1P1 receptor or Rat Basophilic Leukaemia cells (RBL) stably expressing human S1P3 receptor were grown to 80% confluency before being harvested into 10 ml Phospho-Buffered Saline (PBS) and centrifuged at 1200 rpm for 5 minutes. After removal of the supernatant, the pellet was re-suspended and cells”
Human S1P1 rat hepatoma membranes (1.5 μg/well) were adhered to a wheatgerm agglutinin (WGA)-coated scintillation proximity assay (SPA) beads (0.125 mg/well) in assay buffer (HEPES 20 mM, MgCl2 10 mM, NaCl 100 mM and pH adjusted to 7.4 using KOH 5M, GDP 10 μM FAC (final assay concentration) and saponin 90 μg/ml FAC was also added).
as §2, with “μl) was then centrifuged at” for “μl) was centrifuged at”
as §3, §4
as §5, with “S1P1” for “S1P3”, “RH7777 membranes (1.5 μg/well)” for “RBL”
as §6

[3] = clinical studies, first 24 hours of treatment; cited from earlier work
[4] = test system: circulating lymphocytes; conditions: animals and man; cited from earlier work

## CC(C)Oc1ccc(-c2nc(-c3cccc4c3OCCNC4CC(=O)O)no2)cc1Cl (centres unmarked) [Example 7, [9-(5-{3-Chloro-4-[(1-methylethyl)oxy]phenyl}-1,2,4-oxadiazol-3-yl)-2,3,4,5-tetrahydro-1,4-benzoxazepin-5-yl]acetic acid hydrochloride]
[1]
  EC50: > 10 µM
[2]
  EC50: < 0.1 µM

## CC(C)Oc1ccc(-c2nc(-c3ccc4c(c3)CNC(C(=O)O)CO4)no2)cc1Cl (centres unmarked) [Example 5, 7-(5-{3-Chloro-4-[(1-methylethyl)oxy]phenyl}-1,2,4-oxadiazol-3-yl)-2,3,4,5-tetrahydro-1,4-benzoxazepine-3-carboxylic acid hydrochloride]
[2]
  EC50: < 0.1 µM

## CC(C)Oc1ccc(-c2nc(-c3ccc4c(c3)CCCNC4CCC(N)=O)no2)cc1Cl (centres unmarked) [Example 1, 3-[7-(5-{3-chloro-4-[(1-methylethyl)oxy]phenyl}-1,2,4-oxadiazol-3-yl)-2,3,4,5-tetrahydro-1H-2-benzazepin-1-yl]propanamide]
[1]
  EC50: > 10 µM

## CC(C)Oc1ccc(-c2nc(-c3cccc4c3OCCNC4CCC(=O)O)no2)cc1Cl (centres unmarked) [Example 13, 3-[9-(5-{3-Chloro-4-[(1-methylethyl)oxy]phenyl}-1,2,4-oxadiazol-3-yl)-2,3,4,5-tetrahydro-1,4-benzoxazepin-5-yl]propanoic acid, formic acid salt]
[1]
  EC50: > 10 µM
[2]
  EC50: < 0.01 µM

## CC(C)Oc1ccc(-c2nc(-c3cccc4c3OCCNC4CC(=O)O)no2)cc1C#N (centres unmarked) [Example 8, [9-(5-{3-cyano-4-[(1-methylethyl)oxy]phenyl}-1,2,4-oxadiazol-3-yl)-2,3,4,5-tetrahydro-1,4-benzoxazepin-5-yl]acetic acid]
[1]
  EC50: > 10 µM

## CC(C)Oc1ccc(-c2nc(-c3cccc4c3OCCNC4CCCC(=O)O)no2)cc1Cl (centres unmarked) [Example 12, 4-[9-(5-{3-chloro-4-[(1-methylethyl)oxy]phenyl}-1,2,4-oxadiazol-3-yl)-2,3,4,5-tetrahydro-1,4-benzoxazepin-5-yl]butanoic acid hydrochloride]
[1]
  EC50: > 10 µM
[2]
  EC50: < 0.01 µM

## CC(C)Oc1ncc(-c2nc(-c3cccc4c3OCCNC4CCCC(=O)O)no2)cc1Cl (centres unmarked) [Example 11, 4-[9-(5-{5-chloro-6-[(1-methylethyl)oxy]-3-pyridinyl}-1,2,4-oxadiazol-3-yl)-2,3,4,5-tetrahydro-1,4-benzoxazepin-5-yl]butanoic acid hydrochloride]
[2]
  EC50: < 0.1 µM

## CC(C)Oc1ccc(-c2nc(-c3ccc4c(c3)CCCNC4CCCO)no2)cc1Cl (centres unmarked) [Example 3, 3-[7-(5-{3-Chloro-4-[(1-methylethyl)oxy]phenyl}-1,2,4-oxadiazol-3-yl)-2,3,4,5-tetrahydro-1H-2-benzazepin-1-yl]-1-propanol hydrochloride]
[1]
  EC50: > 10 µM

## CC(C)Oc1ccc(-c2nc(-c3ccc4c(c3)CNC(CCC(=O)O)CO4)no2)cc1Cl (centres unmarked) [Example 6, 3-[7-(5-{3-Chloro-4-[(1-methylethyl)oxy]phenyl}-1,2,4-oxadiazol-3-yl)-2,3,4,5-tetrahydro-1,4-benzoxazepin-3-yl]propanoic acid hydrochloride]
[2]
  EC50: < 0.01 µM

## CC(C)Oc1ccc(-c2nc(-c3cccc4c3OCCNC4CCCC(=O)O)no2)cc1C#N (centres unmarked) [Example 10, 4-[9-(5-{3-cyano-4-[(1-methylethyl)oxy]phenyl}-1,2,4-oxadiazol-3-yl)-2,3,4,5-tetrahydro-1,4-benzoxazepin-5-yl]butanoic acid hydrochloride salt]
[1]
  EC50: > 10 µM
[2]
  EC50: < 0.1 µM

## CC(C)Oc1ccc(-c2nc(-c3cccc4c3OCCNC4CCC(=O)O)no2)cc1C#N (centres unmarked) [Example 14, 3-[9-(5-{3-cyano-4-[(1-methylethyl)oxy]phenyl}-1,2,4-oxadiazol-3-yl)-2,3,4,5-tetrahydro-1,4-benzoxazepin-5-yl]propanoic acid, formic acid salt]
[2]
  EC50: < 0.01 µM

## CC(C)Oc1ccc(-c2nc(-c3ccc4c(c3)CCCNC4CCC(=O)O)no2)cc1Cl (centres unmarked) [Example 2, 3-[7-(5-{3-Chloro-4-[(1-methylethyl)oxy]phenyl}-1,2,4-oxadiazol-3-yl)-2,3,4,5-tetrahydro-1H-2-benzazepin-1-yl]propanoic acid hydrochloride]
[1]
  EC50: > 10 µM

## CCCCCCCCc1ccc(CCC(N)(CO)CO)cc1 [FTY720]
[3]
  bradycardia on treatment: bradycardia in the first 24 hours of treatment
[4]
  effect on circulating lymphocytes: reduce circulating lymphocytes

## CC(C)Oc1ncc(-c2nc(-c3cccc4c3OCCNC4CC(=O)O)no2)cc1Cl (centres unmarked) [Example 9, [9-(5-{5-Chloro-6-[(1-methylethyl)oxy]-3-pyridinyl}-1,2,4-oxadiazol-3-yl)-2,3,4,5-tetrahydro-1,4-benzoxazepin-5-yl]acetic acid]
[1]
  EC50: > 10 µM
[2]
  EC50: < 0.1 µM
